pIC50: −log10 of the molar value.
These compounds were tested against BCL2 (Homo sapiens, UniProt P10415) (assay: Biacore SPR solution inhibition assay of BCL-2 binding to peptide derivatized sensor surfaces). Conditions: SPR competition; 56 nM BCL2 pre-equilibrated with compound one hour; biotinylated BAK, BAD and NOXA peptide surfaces; 25° C.
Excerpt: The present method includes utility of a Surface plasmon resonance (SPR)-based biosensor (Biacore™ GE Healthcare, Uppsala, Sweden) to characterize BCL-2 inhibitors.
Biacore™ utilizes the phenomenon of surface plasmon resonance (SPR) to detect and measure binding interactions. In a typical Biacore experiment, one of the interacting molecules (ligand) is immobilized on a flexible dextran matrix while the interacting partner (analyte) is allowed to flow across that surface. A binding interaction results in an increase in mass on the sensor surface and a corresponding direct change in the refractive index of the medium in the vicinity of the sensor surface. Changes in refractive index or signal are recorded in resonance units (R.U.) Signal changes due to association and dissociation of complexes are monitored in a non-invasive manner, continuously and in real-time, the results of which are reported in the form of a sensorgram. The SPR assay is configured to examine solution inhibition of BCL-2 binding to peptide derivatized sensor surfaces to generate […] values as a measure of inhibitor potency.
Biacore™ A100 (GE Healthcare, Uppsala, Sweden) was used to conduct all experiments reported herein. Sensor surface preparation and all interaction analyses experiments were performed at 25° C. Reagents were purchased from GE Healthcare. Running buffer containing 10 mM Hepes, pH7.4, 150 mM sodium chloride, 1.25 mM Dithiothreitol, 3% Dimethyl sulfoxide and 0.05% polysorbate 20 were utilized throughout all analyses.
Biotinylated BAK, BAD and NOXA peptides were diluted to 10 nM in running buffer and captured onto a sensor surface pre-derivatized with streptavidin (sensor chip SA) to peptide surface densities in the range 50-100 R.U. Peptide captured surfaces were blocked with 500 μM PEO2-Biotin.
Interaction analyses were performed by first equilibrating each sample within a 6 point three fold compound dilution series in the range 16 μM to 0.004 nM with 56 nM BCL2 for one hour during instrument start-up procedures. Protein compound mixtures were then injected over each peptide surface in parallel for 60 seconds at a flow-rate of 30 μL/min. 56 nM BCL2 control samples were also prepared and run at regular intervals during the assay. Surface regeneration was performed at the end of each analysis cycle by two 30 second injections of 10 mM Glycine, pH 2.5, 1M Sodium Chloride, 0.05% polysorbate 20. Samples and control compound samples were run in duplicate and controls are also run at regular intervals during the assay to monitor surface and assay performance.
Data analyses are carried out using Biacore™ A100 evaluation software v1.1 to validate assay quality. Binding level report points were used relative to BCL2 control samples to calculate % inhibition values for each compound protein mixture.

BCL2, sequence (P10415 whole entry): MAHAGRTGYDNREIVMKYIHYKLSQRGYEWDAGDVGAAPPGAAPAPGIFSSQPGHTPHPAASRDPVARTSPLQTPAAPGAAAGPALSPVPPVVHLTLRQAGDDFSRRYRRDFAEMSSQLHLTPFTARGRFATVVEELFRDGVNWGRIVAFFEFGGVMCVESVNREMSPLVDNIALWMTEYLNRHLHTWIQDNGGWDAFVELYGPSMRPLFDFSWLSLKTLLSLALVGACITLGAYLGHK

pIC50 | SMILES
7.14 | CC(c1ccccc1-c1ccc(Cl)cc1)N1CCC(N2CCc3c(ncnc3NS(=O)(=O)c3ccc(N[C@H](CCN(C)C)CSc4ccccc4Cl)c(S(=O)(=O)C(F)(F)F)c3)C2)CC1 (stereo partly drawn) [Example 29, N-(7-(1-(1-(4′-chlorobiphenyl-2-yl)ethyl)piperidin-4-yl)-5,6,7,8-tetrahydropyrido[3,4-d]pyrimidin-4-yl)-4-((R)-1-(2-chlorophenylthio)-4-(dimethylamino)butan-2-ylamino)-3-(trifluoromethylsulfonyl)benzenesulfonamide]
6.89 | O=S(=O)(Nc1ncnc2c1CCN(C1CCN(Cc3ccccc3-c3ccc(Cl)cc3)CC1)C2)c1ccc(N[C@H](CCN2CCCCC2)CSc2ccccc2)c(S(=O)(=O)C(F)(F)F)c1 [Example 30, (R)-N-(7(1-((4′-chlorobiphenyl-2-yl)methyl)piperidin-4-yl)-5,6,7,8-tetrahydropyrido[3,4-d]pyrimidin-4-yl)-4-(l-(phenylthio)-4-(piperidin-1-yl)butan-2-ylamino)-3-(trifluoromethylsulfonyl)benzenesulfonamide]
7.08 | CC(c1cc(F)ccc1-c1ccc(Cl)cc1)N1CCC(N2CCc3c(ncnc3NS(=O)(=O)c3ccc(N[C@H](CCN4CCOCC4)CSc4ccccc4)c(S(=O)(=O)C(F)(F)F)c3)C2)CC1 (stereo partly drawn) [Example 31, N-(7-(1-(1-(4′-chloro-4-fluorobiphenyl-2-yl)ethyl)piperidin-4-yl)-5,6,7,8-tetrahydropyrido[3,4-d]pyrimidin-4-yl)-4-((R)-4-morpholino-1-(phenylthio)butan-2-ylamino)-3-(trifluoromethylsulfonyl)benzenesulfonamide]

The remaining lines, values behind:

SMILES | pIC50
CN(C)CC[C@H](COCc1ccccc1)Nc1ccc(S(=O)(=O)Nc2ncnc3c2CCN(C2CCN(Cc4ccccc4-c4ccc(Cl)cc4)CC2)C3)cc1S(=O)(=O)C(F)(F)F [Example 25, 4-((R)-1-Benzyloxymethyl-3-dimethylamino-propylamino)-N-{7-[1-(4′-chloro-biphenyl-2-ylmethyl)-piperidin-4-yl]-5,6,7,8-tetrahydro-pyrido[3,4-d]pyrimidin-4-yl}-3-trifluoromethanesulfonyl-benzenesulfonamide] | 6.85
CN(C)CC[C@H](CSc1cccc(Cl)c1)Nc1ccc(S(=O)(=O)Nc2ncnc3c2CCN(C2CCN(Cc4ccccc4-c4ccc(Cl)cc4)CC2)C3)cc1S(=O)(=O)C(F)(F)F [Example 26, N-{7-[1-(4′-Chloro-biphenyl-2-ylmethyl)-piperidin-4-yl]-5,6,7,8-tetrahydro-pyrido[3,4-c]pyrimidin-4-yl}-4-[(R)-1-(3-chloro-phenylsulfanylmethyl)-3-dimethylamino-propylamino]-3-trifluoromethanesulfonyl-benzenesulfonamide] | 7.32
CC1CC(N2CCc3c(ncnc3NS(=O)(=O)c3ccc(N[C@H](CCN4CCOCC4)CSc4ccccc4)c(S(=O)(=O)C(F)(F)F)c3)C2)CCN1CC1=C(c2ccc(Cl)cc2)CC(C)(C)CC1 (stereo partly drawn) [Example 27, N-(7-(1-((2-(4-chlorophenyl)-4,4-dimethylcyclohex-1-enyl)methyl)-2-methylpiperidin-4-yl)-5,6,7,8-tetrahydropyrido[3,4-d]pyrimidin-4-yl)-4-((R)-4-morpholino-1-(phenylthio)butan-2-ylamino)-3-(trifluoromethylsulfonyl)benzenesulfonamide] | 6.69
CN(C)CC[C@H](CSc1ccccc1Cl)Nc1ccc(S(=O)(=O)Nc2ncnc3c2CCN(C2CCN(CC4=C(c5ccc(Cl)cc5)CC(C)(C)CC4)CC2)C3)cc1S(=O)(=O)C(F)(F)F [Example 28, (R)-N-(7-(1((2-(4-chlorophenyl)-4,4-dimethylcyclohex-1-enyl)methyl)piperidin-4-yl)-5,6,7,8-tetrahydropyrido[3,4-d]pyrimidin-4-yl)-4-(1-(2-chlorophenylthio)-4-(dimethylamino)butan-2-ylamino)-3-(trifluoromethylsulfonyl)benzenesulfonamide] | 7.36
